Where two headings read alike, the source gives them in different places.
Tested on: effect of IL-1β on SEAP reporter gene activity in selected NIH3T3 cells
Experiment: IL-1β-induced SEAP reporter gene activity in selected NIH3T3 cell clones
Type: cell-based
Settings: IL-1β-stimulated selected NIH3T3 cells, read-out: IC50 value of the inhibition of SEAP activity

Question: Which IC50 (Mus musculus) does the source give for `Cc1ccc(-c2cc(C(F)(F)F)nn2-c2ccc(S(N)(=O)=O)cc2)cc1` [celecoxib] here?
Answer: The IC50 was roughly 0.2 µM.

Question: `COc1cccc(-c2cc(=O)c3ccccc3o2)c1N` [PD98059] was tested. Which IC50 did it give?
Answer: The IC50 was roughly 1 µM.

Question: For `N#CC(=C(/N)Sc1ccccc1N)/C(C#N)=C(\N)Sc1ccccc1N` [U0126], which IC50 (Mus musculus) is on record?
Answer: The IC50 was roughly 1 µM.
